The data set in a line: aqueous, methanol and acidic extraction of capsule fill, assay by HPLC. The data set is classed as physicochemical. The procedure:
In order to ascertain the resistance to aqueous and acidic extraction, the fill mass of 10 capsules was mixed with different amounts of purified water (5 mL/caps. and 10 mL/caps.) and extracted for 1, 3 or 5 days. Further, the fill mass of 10 capsules was mixed with 20 mL of methanol and was extracted for 3 days.
The fill mass of 10 capsules of Formulation A or Formulation B was mixed with 20 mL of 0.1 N hydrochloric acid and extracted for one day. Comparison solutions of Pseudoephedrine HCl (labeled as API in the table below) were prepared. After an extraction of the formulation/solvent mixture, the mixtures were centrifugated and the assay of pseudoephedrine HCl was analyzed by HPLC. Even after centrifugation the solutions were turbid. The results were normalized to a capsule containing 1164.8 mg of pseudoephedrine HCl.

Where a name gives a salt, the structure may show the parent alone.

Regarding `CN[C@@H](C)[C@@H](O)c1ccccc1` [API, Pseudoephedrine HCl], the “Calculated Mass of recoverable Pseudoephedrine HCl” value is on record as 1026.0 mg (comparison solution, 1 day, 50 mL water); 1243.7 mg (comparison solution, 3 days, 50 mL water); 1227.7 mg (comparison solution, 5 days, 50 mL water); 1197.3 mg (extraction 1 day, 20 mL HCl 0.1 mol/L with neutralisation); 1054.7 mg (extraction 1 day, 20 mL HCl 0.1 mol/L without neutralisation); 1165.6 mg (extraction 3 days, 20 mL methanol).

These data come from US12133922B2, “Abuse resistant capsule” (R.P. Scherer Technologies, LLC, priority 2013, dated 2024).
